Results: US6794396B2, “Substituted pyridines useful for inhibiting cholesteryl ester transfer protein activity” (Pharmacia Corporation, priority 1998, dated 2004)
Where two headings read alike, the source gives them in different places.

Legend:
[1] = target: T1, CETP (Homo sapiens, UniProt P11597); test: CETP activity in vitro: transfer of [3H]CE from HDL donor to LDL acceptor particles; assay type: biochemical
T1 construct: made in house; host or cells: CHO cells (serum-free conditioned medium)
T1 sequence (P11597 18-493): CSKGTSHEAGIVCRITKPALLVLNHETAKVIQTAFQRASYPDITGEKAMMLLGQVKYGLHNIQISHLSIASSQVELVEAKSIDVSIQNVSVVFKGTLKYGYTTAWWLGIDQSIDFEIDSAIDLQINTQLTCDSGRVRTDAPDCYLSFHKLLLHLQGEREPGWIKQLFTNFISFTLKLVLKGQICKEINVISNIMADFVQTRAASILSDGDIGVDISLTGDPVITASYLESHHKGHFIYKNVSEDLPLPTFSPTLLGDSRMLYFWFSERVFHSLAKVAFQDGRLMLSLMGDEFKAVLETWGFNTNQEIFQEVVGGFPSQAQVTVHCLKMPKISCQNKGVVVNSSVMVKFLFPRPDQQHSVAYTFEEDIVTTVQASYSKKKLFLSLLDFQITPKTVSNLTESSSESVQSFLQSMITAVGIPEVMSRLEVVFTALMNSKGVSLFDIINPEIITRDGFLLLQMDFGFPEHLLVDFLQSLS
Method in brief: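 CETP from conditioned medium of CETP-transfected CHO cells incubated with [3H]CE-labelled HDL donor and LDL acceptor, pH 7.4 Tris buffer with NaCl, EDTA and 1% BSA, 2 h at 37 °C. LDL precipitated with dextran sulfate/MgCl2, filtered, and transferred radioactivity counted; IC50 reported.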

[2] = target: T2, CETP in human plasma or serum pool (Homo sapiens, UniProt P11597); test: Whole serum CETP activity assay (tritiated cholesterol ester); assay type: biochemical; settings: 4 hours at 37° C.
T2 construct: from tissue; host or cells: pooled human EDTA plasma or serum from healthy volunteers
T2 sequence (P11597 18-493): T1 sequence (P11597 18-493)
Protocol: Blood was obtained from healthy volunteers recruited from the personnel of Monsanto Company, Saint Louis, Mo. Blood was either collected in tubes containing EDTA (EDTA plasma pool) or in tubes without EDTA (spun to form the serum pool). The EDTA human plasma pool or human serum pool, previously stored at −20° C., was thawed at room temperature, and centrifuged for 5 minutes to remove any particulate matter. Tritiated HDL, radiolabeled in the cholesteryl ester moiety ([^3H]CE-HDL) as described by Morton and Zilversmit (J. Biol. Chem., 256, 11992-95 (1981) which is incorporated by reference herein), was added to the plasma or serum to a final concentration of (25 μg/ml cholesterol).
Inhibitor compounds were added to the plasma or serum as follows: Equal volumes of the plasma or serum containing the [^3H]CE-HDL (396 μl) were pipetted into micro tubes (Titertube®, Bio-Rad Laboratories, Hercules, Calif.). Compounds, usually dissolved as 20-50 mM stock solutions in DMSO, were serially diluted in DMSO (or an alternative solvent in some cases, such as dimethylformamide or ethanol). Four μl of each of the serial dilutions of inhibitor compounds or DMSO alone were then added to each of the plasma or serum tubes. The tubes were immediately mixed. Triplicate aliquots (100 μl) from each plasma or serum tube were then transferred to wells of 96-well round-bottomed polystyrene microtiter plates (Corning, Corning, N.Y.). Plates were sealed with plastic film and incubated at 37° C. for 4 hours.
Test wells contained plasma or serum with dilutions of inhibitor compounds. Control wells contained plasma or serum with DMSO alone. Blank wells contained plasma or serum with DMSO alone that were left in the micro tubes at 4° C. for the 4 hour incubation and were added to the microtiter wells at the end of the incubation period. VLDL and LDL were precipitated by the addition of 10 μl of precipitating reagent (1% (w/v) Dextran Sulfate (Dextralip50)/0.5M magnesium chloride, pH 7.4) to all wells. The wells were mixed on a plate mixer and then incubated at ambient temperature for 10 min. The plates were then centrifuged at 1000×g for 30 mins at 10° C. The supernatants (50 μl) from each well were then transferred to Picoplate™ 96 plate wells (Packard, Meriden, Conn.) containing […] Microscint™-40 (Packard, Meriden, Conn.). The plates were heat-sealed (TopSeal™-P, Packard, Meriden, Conn.) according to the manufacturers directions and mixed for 30 min.
Radioactivity was measured on a microplate scintillation counter (TopCount, Packard, Meriden, Conn.). […] The maximum percent transfer (in the control wells) was determined using the following equation: [formula]
The percent of control transfer determined in the wells containing inhibitor compounds was determined as follows: [formula]
IC50 values were then calculated from plots of % control versus concentration of inhibitor compound.

[3] = IC50(μm), 50% inhibition of [3H]CE transfer from HDL to LDL, 2 hours at 37° C.
[4] = 50% inhibition of [3H]CE transfer from HDL to LDL, 2 hours at 37° C., read-out: IC50(μm)
[5] = Table 6, compounds of formula T-6, read-out: IC50

Row | IC50 [1, 4] | SMILES | IC50 [1, 3] | melting point | other results
1 | > 100 µM | COC(=O)c1c(C(F)F)nc(C(F)(F)F)c(C(=O)Oc2ccccc2[N+](=O)[O-])c1CC(C)C [Compound 166, 3-Methyl 5-(2-Nitrophenyl) 2-(Difluoromethyl)-4-(2-methylpropyl)-6-(trifluoromethyl)-3,5-pyridicarboxylate] |  | 102.5 to 105.5 °C | 
2 | 60 µM | COC(=O)c1c(C(F)F)nc(C(F)(F)F)c(C(=O)Oc2cc(C(C)(C)C)cc(C(C)(C)C)c2)c1CC(C)C [Compound 167, 3-Methyl 5-(3,5-Di-t-butylphenyl) 2-(Difluoromethyl)-4-(2-methylpropyl)-6-(trifluoromethyl)-3,5-pyridicarboxylate] |  | 100 to 103.5 °C | 
3 | 70 µM | COC(=O)c1c(C(F)F)nc(C(F)(F)F)c(C(=O)Oc2cc(OC)c(OC)c(OC)c2Cc2ccc(F)cc2)c1CC(C)C [Compound 171, 3-Methyl 5-[2-(4-Fluorobenzyl)-3,4,5-(trimethoxy)phenyl]2-(Difluoromethyl)-4-(2-methylpropyl)-6-(trifluoromethyl)-3,5-pyridicarboxylate] |  | 131.5 to 133.5 °C | 
4 | 70 µM | COC(=O)c1c(C(F)F)nc(C(F)(F)F)c(C(=O)Oc2ccc(C)cc2C)c1CC(C)C [Compound 177, 3-Methyl 5-(2,4-Dimethylphenyl) 2-(Difluoromethyl)-4-(2-methylpropyl)-6-(trifluoromethyl)-3,5-pyridicarboxylate] |  | 95 to 99 °C | 

The next lines start with the molecule.

Row | SMILES | IC50 [1, 4] | IC50 [1, 3] | melting point | other results
5 | COC(=O)c1c(C(F)F)nc(C(F)(F)F)c(C(=O)Sc2ccc(Cl)cc2)c1CC(C)C [Compound 162, Methyl 5-{[(4-chlorophenyl)thio]carbonyl}-2-(difluoromethyl)-4-(2-methylpropyl)-6-(trifluoromethyl)-3-pyridinecarboxylate] |  | 50 µM | 94 to 96.5 °C | 
6 | COC(=O)c1c(C(F)F)nc(C(F)(F)F)c(C(=O)Sc2cc(Cl)ccc2Cl)c1CC(C)C [Compound 163, Methyl 5-{[(2,5-Dichlorophenyl)thio]carbonyl}-2-(difluoromethyl)-4-(2-methylpropyl)-6-(trifluoromethyl)-3-pyridinecarboxylate] |  | 65 µM | 112.5 to 113.5 °C | 
7 | COC(=O)c1c(C(F)F)nc(C(F)(F)F)c(C(=O)Sc2c(Cl)cccc2Cl)c1CC(C)C [Compound 164, Methyl 5-{[(2,6-Dichlorophenyl)thio]carbonyl}-2-(difluoromethyl)-4-(2-methylpropyl)-6-(trifluoromethyl)-3-pyridinecarboxylate] |  | 50 µM | 109.5 to 112.5 °C | 
8 | COC(=O)c1c(C(F)F)nc(C(F)(F)F)c(C(=O)Oc2ccccc2OC)c1CC(C)C [Compound 172, 3-Methyl 5-(2-Methoxyphenyl) 2-(Difluoromethyl)-4-(2-methylpropyl)-6-(trifluoromethyl)-3,5-pyridicarboxylate] | > 100 µM |  | 73 to 74.5 °C | 
9 | COC(=O)c1c(C(F)F)nc(C(F)(F)F)c(C(=O)Oc2ccc(Cl)cc2)c1CC(C)C [Compound 173, 3-Methyl 5-(4-Chlorophenyl) 2-(Difluoromethyl)-4-(2-methylpropyl)-6-(trifluoromethyl)-3,5-pyridicarboxylate] |  | 45 µM | 81.5 to 82.5 °C | 
10 | COC(=O)c1c(C(F)F)nc(C(F)(F)F)c(C(=O)Oc2cc(C)cc(C)c2)c1CC(C)C [Compound 174, 3-Methyl 5-(3,5-Dimethylphenyl) 2-(Difluoromethyl)-4-(2-methylpropyl)-6-(trifluoromethyl)-3,5-pyridicarboxylate] |  | 60 µM | 90.5 to 94 °C | 
11 | COC(=O)c1c(C(F)F)nc(C(F)(F)F)c(SSc2ccc(C(C)(C)C)cc2)c1CC(C)C [Compound 180, Methyl 5-(4-t-Butylphenyldithio)-2-(difluoromethyl)-4-(2-methylpropyl)-6-(trifluoromethyl)-3-pyridinecarboxylate] |  |  |  | IC50 whole serum CETP activity [2]: 9 µM; IC50 ([1]; Table 5, compounds of formula T-5, read-out: IC50): 0.45 µM
12 | COC(=O)c1c(C(F)F)nc(C(F)(F)F)c(CSc2ccc(Cl)c(Cl)c2)c1CC(C)C [Compound 214, Methyl 5-[(3,4-Dichlorophenyl)thiomethyl]-2-(difluoromethyl)-4-(2-methylpropyl)-6-(trifluoromethyl)-3-pyridinecarboxylate] |  |  |  | IC50 whole serum CETP activity [2]: 70 µM; IC50 [1, 5]: 2 µM
13 | COC(=O)c1c(C(F)F)nc(C(F)(F)F)c(CSc2ccc3ccccc3c2)c1CC(C)C [Compound 215, Methyl 5-[(2-Naphthyl)thiomethyl]-2-(difluoromethyl)-4-(2-methylpropyl)-6-(trifluoromethyl)-3-pyridinecarboxylate] |  |  |  | IC50 whole serum CETP activity [2]: 110 µM; IC50 [1, 5]: 2 µM
